PMC12311952, “Mechanism of SC targeting RhoA regulation and its potential value in gastric cancer therapy” (Biochemistry and Biophysics Reports, 2025)
pKd: −log10 of the molar value.

Target: RhoA (Homo sapiens, UniProt P61586)
Experiment: SPR (Biacore T200, RhoA immobilized on CM5 chip, […] Langmuir fit)
Format: binding

RhoA, sequence (P61586 1-190): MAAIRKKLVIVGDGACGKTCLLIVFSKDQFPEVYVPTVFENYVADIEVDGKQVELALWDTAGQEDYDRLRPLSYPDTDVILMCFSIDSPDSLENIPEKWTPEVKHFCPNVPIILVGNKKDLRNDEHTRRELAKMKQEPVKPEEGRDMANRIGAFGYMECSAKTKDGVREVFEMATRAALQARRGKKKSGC

- pKd: 5.80
SMILES: O=C(/C=C/CCc1ccc(O)c(O)c1)CCCCc1ccc(O)c(O)c1 [compound 5, (E)-1,9-bis(3,4-dihydroxyphenyl)non-3-en-5-one]
